We go through 33 compounds from patent US7595401B2, “Therapeutic compounds and their use in cancer” (Myriad Pharmaceuticals, Inc., priority 2006, dated 2009).

In one assay the test system is purified human Hsp90. In words: Binding Assay: fluorescence polarization with BODIPY-labeled geldanamycin. As to conditions: 5 μM compound, BODIPY-GM 10 nM, Hsp90 30 nM. In short, it runs like this:
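Fluorescence polarization competition with BODIPY-geldanamycin (10 nM final) and human Hsp90 (30 nM final) in HEPES-KOH pH 7.3 buffer with molybdate, NP-40, DTT; 2% DMSO, overnight at room temperature. Read 485/530 nm; percent inhibition from mP normalized to DMSO controls, fluorescent-compound points excluded.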
Background: Fluorescence polarisation rises when a labelled molecule tumbles more slowly, as on binding a larger partner.
For `N=C(N)N1CCC(CCn2cnc(N)c3nc(Sc4cc5c(cc4Br)OCO5)nc2-3)CC1` [Example 617, 4-(2-{6-Amino-8-[(6-bromo-1,3-benzodioxol-5-yl)thio]-3 H-purin-3-yl}ethyl)piperidine-1-carboximidamide], the “% Inhibition at 5 μM Compound Concentration” value (shortened to “% Inhibition”) worked out at 83.00%.

For `Nc1ncn(CCc2cccc(F)c2F)c2nc(Sc3cc4c(cc3Br)OCO4)nc1-2` [Example 162, 8-(6-bromo-benzo[1,3]dioxol-5-ylsulfanyl)-3-[2-(2,3-difluoro-phenyl)-ethyl]-3H-purin-6-ylamine], the “% Inhibition” value amounted to 0%.

Regarding `COc1ccc(OC)c(Sc2nc3c(N)ncn(CCc4ccc(Cl)cc4Cl)c-3n2)c1` [Example 28, 3-[2-(2,4-dichloro-phenyl)-ethyl]-8-(2,5-dimethoxy-phenyl-sulfanyl)-3H-purin-6-ylamine], the “% Inhibition” value was 0%.

Consider `Nc1ncn(CCc2ccccc2Cl)c2nc(Sc3cc4c(cc3Br)OCCO4)nc1-2` [Example 234, 8-[(7-Bromo-2,3-dihydro-1,4-benzodioxin-6-yl)thio]-3-[2-(2-chlorophenyl)ethyl]-3H-purin-6-amine], for which the “% Inhibition” value came out at 0%.

In the case of `COc1cc(CCn2c(Sc3cc(OC)ccc3OC)nc3c(N)ncnc32)cc(OC)c1` [Example 193, 9-[2-(3,5-dimethoxy-phenyl)-ethyl]-8-(2,5-dimethoxy-phenylsulfanyl)-9H-purin-6-ylamine], the “% Inhibition” value is recorded as 39%.

Regarding `CO[C@H](C)C(=O)N1CCC(CCn2cnc(N)c3nc(Sc4cc5c(cc4Br)OCO5)nc2-3)CC1` [Example 726, 8-[(6-Bromo-1,3-benzodioxol-5-yl)thio]-3-(2-{1-[(2R)-2-methoxypropanoyl]piperidin-4-yl}ethyl)-3 H-purin-6-amine], the “% Inhibition” value came out at 26%.

For `Nc1ncnc2c1nc(Sc1cc3c(cc1Br)OCO3)n2CCc1cccc(C(F)(F)F)c1` [Example 165, 8-(6-Bromo-benzo[1,3]dioxol-5-ylsulfanyl)-9-[2-(3-trifluoromethyl-phenyl)-ethyl]-9H-purin-6-ylamine], the “% Inhibition” value amounted to 60%.

Regarding `COc1ccc(OC)c(Sc2nc3c(N)ncn(CCc4ccc5c(c4)OCO5)c-3n2)c1` [Example 168, 3-(2-benzo[1,3]dioxol-5-yl-ethyl)-8-(2,5-dimethoxy-phenylsulfanyl)-3H-purin-6-ylamine], the “% Inhibition” value is reported as 0%.

Regarding `COc1ccc(OC)c(Sc2nc3c(N)ncnc3n2CCC2(F)C(F)(F)C(F)(F)C(F)(F)C(F)(F)C2(F)F)c1` [Example 245, 8-[(2,5-Dimethoxyphenyl)thio]-9-[2-(undecafluorocyclohexyl)ethyl]-9H-purin-6-amine], the “% Inhibition” value worked out at 1%.

Consider `COc1ccc(I)c(Sc2nc3c(N)ncn(CCc4ccccc4)c-3n2)c1` [Example 323, 8-[(2-Iodo-5-methoxyphenyl)thio]-3-(2-phenylethyl)-3H-purin-6-amine], for which the “% Inhibition” value came out at 0.0%.

For the compound `COc1ccc(OC)c(Sc2nc3c(N)ncnc3n2CCc2cc(C)cc(C)c2)c1` [Example 132, 8-(2,5-Dimethoxy-phenylsulfanyl)-9-[2-(3,5-dimethyl-phenyl)-ethyl]-9H-purine-6-ylamine], the “% Inhibition” value came out at 54%.

Regarding `COc1ccc(OC)c(Sc2nc3c(N)ncn(C4Cc5ccccc5C4O)c-3n2)c1` (stereo not shown) [Example 236, 2-{6-Amino-8-[(2,5-dimethoxyphenyl)thio]-3H-purin-3-yl}indan-1-ol], the “% Inhibition” value came to 0%.

With `Nc1ncnc2c1nc(Sc1cc3c(cc1Br)OCO3)n2CCC1CCCCC1` [Example 173, 8-(6-Bromo-benzo[1,3]dioxol-5-ylsulfanyl)-9-(2-cyclohexyl-ethyl)-9H-purin-6-ylamine], the “% Inhibition” value is reported as 44%.

Regarding `Nc1ncn(CCc2ccccc2Br)c2nc(Sc3cc4c(cc3Br)OCO4)nc1-2` [Example 150, 8-(6-bromo-benzo[1,3]dioxol-5-ylsulfanyl)-3-[2-(2-bromo-phenyl)-ethyl]-3H-purin-6-ylamine], the “% Inhibition” value was 0%.

Still in this assay, the particulars now being: BODIPY-GM 10 nM, Hsp90 30 nM.
For the compound `COc1ccc(F)cc1Sc1nc2c(N)ncnc2n1CCc1ccccc1Cl` [Example 316, 9-[2-(2-Chlorophenyl)ethyl]-8-[(5-fluoro-2-methoxyphenyl)thio]-9H-purin-6-amine], the half-inhibitory concentration (IC50) amounted to 18000 nM.

`Nc1ncnc2c1nc(Sc1cc3c(cc1Br)OCO3)n2CCc1c(F)c(F)c(F)c(F)c1F` [Example 41, 8-(6-Bromo-benzo[1,3]dioxol-5-ylsulfanyl)-9-(2-pentafluorophenyl-ethyl)-9H-purin-6-ylamine]: the IC50 stood at 500 nM.

Compound `C[C@H](N)C(=O)N1CCCC(CCn2c(Sc3cc4c(cc3Br)OCO4)nc3c(N)ncnc32)C1` (stereo partly drawn) [Example 747, 9-(2-{1-[(2S)-2-Aminopropanoyl]piperidin-3-yl}ethyl)-8-[(6-bromo-1,3-benzodioxol-5-yl)thio]-9H-purin-6-amine] registered an IC50 of 110 nM.

`COc1cc(CCn2c(Sc3cc(OC)ccc3OC)nc3c(N)ncnc32)cc(OC)c1` [Example 193, 9-[2-(3,5-dimethoxy-phenyl)-ethyl]-8-(2,5-dimethoxy-phenylsulfanyl)-9H-purin-6-ylamine] had an IC50 of 310 nM.

Take `Nc1ncnc2c1nc(Sc1cc3c(cc1Br)OCO3)n2CCN1CCCC1=O` [Example 584, 1-(2-{6-Amino-8-[(6-bromo-1,3-benzodioxol-5-yl)thio]-9 H-purin-9-yl}ethyl)pyrrolidin-2-one]: the IC50 is 1400 nM.

`COc1cc(Sc2nc3c(N)ncn(CCc4ccccc4)c-3n2)cc(OC)c1OC` [Example 46, 3-phenethyl-8-(3,4,5-trimethoxy-phenylsulfanyl)-3H-purin-6-ylamine] yielded an IC50 of over 10000 nM.

`Nc1ncnc2c1nc(Sc1cc3c(cc1Br)OCO3)n2CCc1cccc(C(F)(F)F)c1` [Example 165, 8-(6-Bromo-benzo[1,3]dioxol-5-ylsulfanyl)-9-[2-(3-trifluoromethyl-phenyl)-ethyl]-9H-purin-6-ylamine] had an IC50 of 300 nM.

The compound `COc1ccc(OC)c(Sc2nc3c(N)ncnc3n2CCc2ccc(N(C)C)cc2)c1` [Example 185, 8-(2,5-Dimethoxy-phenylsulfanyl)-9-[2-(4-dimethylamino-phenyl)-ethyl]-9H-purin-6-ylamine] showed an IC50 of over 2500 nM.

In turn, `CC(=O)N1CCC[C@H]1C(=O)N1CCC(CCn2c(Sc3cc4c(cc3Br)OCO4)nc3c(N)ncnc32)CC1` [Example 776, 9-{2-[1-(1-Acetyl-L-prolyl)piperidin-4-yl]ethyl}-8-[(6-bromo-1,3-benzodioxol-5-yl)thio]-9H-purin-6-amine] displayed an IC50 of 310 nM.

In turn, `Nc1ncnc2c1nc(Sc1cc3c(cc1Br)OCO3)n2CCc1cccc(I)c1` [Example 153, 8-(6-Bromo-benzo[1,3]dioxol-5-ylsulfanyl)-9-[2-(3-iodo-phenyl)-ethyl]-9H-purin-6-ylamine] yielded an IC50 of 600 nM.

`CO[C@H](C)C(=O)N1CCC(CCn2c(Sc3cc4c(cc3Br)OCO4)nc3c(N)ncnc32)CC1` [Example 725, 8-[(6-Bromo-1,3-benzodioxol-5-yl)thio]-9-(2-{1-[(2R)-2-methoxypropanoyl]piperidin-4-yl}ethyl)-9H-purin-6-amine] showed an IC50 of 100 nM.

For `Nc1ncnc2c1nc(Sc1ccc3c(c1)OCO3)n2CCc1ccc(F)cc1` [Example 11, 8-(Benzo[1,3]dioxol-5-ylsulfanyl)-9-[2-(4-fluoro-phenyl)-ethyl]-9H-purin-6-ylamine], the IC50 was found to be 600 nM.

In the case of `Nc1ncnc2c1nc(Sc1cc3c(cc1Br)OCO3)n2CC=C1CCNCC1` [Example 471, 8-[(6-Bromo-1,3-benzodioxol-5-yl)thio]-9-(2-piperidin-4-ylideneethyl)-9 H-purin-6-amine], the IC50 was found to be 600 nM.

`Nc1ncnc2c1nc(Sc1cc3c(cc1Br)OCO3)n2CC[C@@H]1CCCCN1` [Example 477, 8-[(6-Bromo-1,3-benzodioxol-5-yl)thio]-9-{2-[(2S)-piperidin-2-yl]ethyl}-9 H-purin-6-amine] displayed an IC50 of 467 nM.

As to `CN[C@@H](C)C(=O)N1CCC(CCn2c(Sc3cc4c(cc3Br)OCO4)nc3c(N)ncnc32)CC1` [Example 749, 8-[(6-Bromo-1,3-benzodioxol-5-yl)thio]-9-(2-{1-[(2S)-2-(methylamino)propanoyl]piperidin-4-yl}ethyl)-9H-purin-6-amine], the IC50 was 330 nM.

Take `COc1cccc(CCn2c(Sc3cc(OC)ccc3OC)nc3c(N)ncnc32)c1` [Example 35, 8-(2,5-Dimethoxy-phenylsulfanyl)-9-[2-(3-methoxy-phenyl)-ethyl]-9H-purin-6-ylamine]: the IC50 was determined as 800 nM.

With `C[C@@H](C(=O)N1CCC(CCn2c(Sc3cc4c(cc3Br)OCO4)nc3c(N)ncnc32)CC1)N(C)C(=O)OC(C)(C)C` [Example 715, tert-Butyl{(1S)-2-[4-(2-{6-amino-8-[(6-bromo-1,3-benzodioxol-5-yl)thio]-9H-purin-9-yl}ethyl)piperidin-1-yl]-1-methyl-2-oxoethyl}methylcarbamate], the IC50 was over 2000 nM.

The compound `CN(C)c1ccc(CCn2c(Sc3cc4c(cc3Br)OCO4)nc3c(N)ncnc32)cc1` [Example 187, 8-(6-Bromo-benzo[1,3]dioxol-5-ylsulfanyl)-9-[2-(4-dimethylamino-phenyl)-ethyl]-9H-purin-6-ylamine] had an IC50 of over 2500 nM.

Compound `COc1ccc(OC)c(Sc2nc3c(N)ncnc3n2CCc2cc(C)cc(C)c2)c1` [Example 132, 8-(2,5-Dimethoxy-phenylsulfanyl)-9-[2-(3,5-dimethyl-phenyl)-ethyl]-9H-purine-6-ylamine] came in with an IC50 of 500 nM.

The compound `COc1ccc(OC)c(Sc2nc3c(N)ncnc3n2CCc2ccc(NC(=O)OC(C)(C)C)cc2)c1` [Example 214, (4-{2-[6-Amino-8-(2,5-dimethoxy-phenylsulfanyl)-purin-9-yl]-ethyl}-phenyl)-carbamic acid tert-butyl ester] came in with an IC50 of 950 nM.

In the case of `Nc1ncnc2c1nc(Sc1cc3c(cc1Br)OCO3)n2CCC1CCCCC1` [Example 173, 8-(6-Bromo-benzo[1,3]dioxol-5-ylsulfanyl)-9-(2-cyclohexyl-ethyl)-9H-purin-6-ylamine], the IC50 is over 25000 nM.

Take `CC(C)(C)OC(=O)N1CCC(CCn2c(Sc3cc4c(cc3Br)OCO4)nc3c(N)ncnc32)CC1` [Example 341, tert-Butyl 4-(2-{6-amino-8-[(6-bromo-1,3-benzodioxol-5-yl)thio]-9H-purin-9-yl}ethyl)piperidine-1-carboxylate]: the IC50 was determined as 200 nM.

On to `CC(=O)N1CCC(CCn2c(Sc3cc4c(cc3Br)OCO4)nc3c(N)ncnc32)CC1` [Example 364, 9-[2-(1-Acetylpiperidin-4-yl)ethyl]-8-[(6-bromo-1,3-benzodioxol-5-yl)thio]-9H-purin-6-amine], for which the IC50 came to 102 nM.

As usually defined, the % Inhibition is the change of the read-out against control, counted positive when it falls. Read a high % Inhibition as strong suppression. As usually defined, the IC50 is the concentration that gives 50% inhibition. A high value points to a need for much substance.
